{"source": "paper PMC7827406", "about": "“Structure–Activity Relationship (SAR) Study of Spautin-1 to Entail the Discovery of Novel NEK4 Inhibitors” (International Journal of Molecular Sciences, 2021)", "test_in_all_cases": "biochemical", "set-up_in_all_cases": "Eurofins KinaseProfiler full panel at Km ATP, residual kinase activity (%) relative to DMSO", "key": {"CK1ε(h)": {"target": "T1, CK1ε(h) (Homo sapiens, UniProt P49674)", "T1 construct": "gene CSNK1E", "method_in_brief": "(§1)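 Compounds screened at 10 µM in radiometric kinase activity assays at Km ATP, reported as remaining kinase activity (%). A KINOMEscan competition-binding screen at 10 µM measured DNA-tagged kinase retained on immobilized active-site ligand by qPCR.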"}, "Met(h)": {"target": "Met(h) (Homo sapiens, UniProt P08581)", "sequence (P08581 whole entry)": "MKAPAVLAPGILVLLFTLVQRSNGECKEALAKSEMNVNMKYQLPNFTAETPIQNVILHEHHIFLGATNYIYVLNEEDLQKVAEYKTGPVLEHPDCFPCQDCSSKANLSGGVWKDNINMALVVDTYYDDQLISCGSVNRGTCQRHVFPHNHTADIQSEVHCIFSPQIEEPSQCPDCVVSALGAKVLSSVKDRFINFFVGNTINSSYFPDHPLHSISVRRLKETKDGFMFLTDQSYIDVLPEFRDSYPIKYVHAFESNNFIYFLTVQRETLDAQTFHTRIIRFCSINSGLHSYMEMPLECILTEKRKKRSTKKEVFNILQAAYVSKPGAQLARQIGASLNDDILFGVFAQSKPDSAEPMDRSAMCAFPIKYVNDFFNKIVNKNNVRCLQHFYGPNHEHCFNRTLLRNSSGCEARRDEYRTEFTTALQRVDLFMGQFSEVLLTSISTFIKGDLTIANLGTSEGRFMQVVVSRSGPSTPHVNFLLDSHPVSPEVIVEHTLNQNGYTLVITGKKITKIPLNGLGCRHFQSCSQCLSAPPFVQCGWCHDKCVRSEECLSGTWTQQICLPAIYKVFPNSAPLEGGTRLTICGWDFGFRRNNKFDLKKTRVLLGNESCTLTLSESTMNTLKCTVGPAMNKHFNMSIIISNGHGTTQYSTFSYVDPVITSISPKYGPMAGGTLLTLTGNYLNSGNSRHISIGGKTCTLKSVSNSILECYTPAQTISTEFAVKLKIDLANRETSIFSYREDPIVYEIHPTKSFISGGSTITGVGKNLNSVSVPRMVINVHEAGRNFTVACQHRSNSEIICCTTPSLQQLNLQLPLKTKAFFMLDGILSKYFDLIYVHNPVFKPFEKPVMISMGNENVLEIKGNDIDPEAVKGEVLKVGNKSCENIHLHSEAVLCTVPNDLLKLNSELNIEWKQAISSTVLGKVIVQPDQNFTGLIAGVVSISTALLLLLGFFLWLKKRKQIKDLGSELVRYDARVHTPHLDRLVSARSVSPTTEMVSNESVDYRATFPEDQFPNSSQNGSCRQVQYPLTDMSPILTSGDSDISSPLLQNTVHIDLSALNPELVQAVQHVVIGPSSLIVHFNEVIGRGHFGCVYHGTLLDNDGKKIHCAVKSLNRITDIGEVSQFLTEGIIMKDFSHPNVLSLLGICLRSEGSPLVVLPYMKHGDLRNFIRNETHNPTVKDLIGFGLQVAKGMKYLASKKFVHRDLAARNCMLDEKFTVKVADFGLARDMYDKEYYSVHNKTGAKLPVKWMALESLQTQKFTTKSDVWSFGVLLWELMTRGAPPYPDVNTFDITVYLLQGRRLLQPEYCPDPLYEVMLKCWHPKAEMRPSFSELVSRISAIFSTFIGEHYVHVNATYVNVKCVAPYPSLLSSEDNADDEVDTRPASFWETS", "method_in_brief": "as §1"}, "AMPKα2(h)": {"target": "T2, AMPKα2(h) (Homo sapiens, UniProt P54646)", "T2 construct": "gene PRKAA2", "method_in_brief": "as §1"}, "MST3(h)": {"target": "T3, MST3(h) (Homo sapiens, UniProt Q9Y6E0)", "T3 construct": "gene STK24", "method_in_brief": "as §1"}, "DDR1(h)": {"target": "DDR1(h) (Homo sapiens, UniProt Q08345)", "sequence (Q08345 whole entry)": "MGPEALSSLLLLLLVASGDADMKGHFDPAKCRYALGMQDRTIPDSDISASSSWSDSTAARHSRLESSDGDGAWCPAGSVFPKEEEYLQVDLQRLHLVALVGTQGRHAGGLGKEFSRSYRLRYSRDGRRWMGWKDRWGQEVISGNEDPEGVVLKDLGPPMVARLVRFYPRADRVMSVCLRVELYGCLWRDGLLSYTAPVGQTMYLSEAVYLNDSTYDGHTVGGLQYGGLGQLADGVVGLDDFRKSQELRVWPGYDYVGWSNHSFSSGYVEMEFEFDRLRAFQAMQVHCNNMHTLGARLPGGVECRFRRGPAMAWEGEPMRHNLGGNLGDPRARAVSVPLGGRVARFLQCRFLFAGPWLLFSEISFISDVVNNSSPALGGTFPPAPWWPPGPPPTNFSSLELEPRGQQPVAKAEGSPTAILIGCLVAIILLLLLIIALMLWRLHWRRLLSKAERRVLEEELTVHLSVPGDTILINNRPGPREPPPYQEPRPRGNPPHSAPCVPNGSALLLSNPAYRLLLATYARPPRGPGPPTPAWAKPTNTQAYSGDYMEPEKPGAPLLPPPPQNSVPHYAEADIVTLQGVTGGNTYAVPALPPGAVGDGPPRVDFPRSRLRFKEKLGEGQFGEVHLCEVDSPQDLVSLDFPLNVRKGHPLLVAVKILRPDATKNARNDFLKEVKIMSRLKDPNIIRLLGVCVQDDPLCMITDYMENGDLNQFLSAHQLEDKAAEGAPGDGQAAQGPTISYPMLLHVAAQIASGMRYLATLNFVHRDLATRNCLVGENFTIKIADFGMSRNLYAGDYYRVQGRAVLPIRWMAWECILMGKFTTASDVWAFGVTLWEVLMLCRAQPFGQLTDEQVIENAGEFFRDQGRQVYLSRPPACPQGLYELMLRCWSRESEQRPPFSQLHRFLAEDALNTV", "method_in_brief": "as §1"}, "PDHK4(h)": {"target": "T4, PDHK4(h) (Homo sapiens, UniProt Q16654)", "T4 construct": "gene PDK4", "method_in_brief": "as §1"}, "Abl(m)": {"target": "T5, Abl(m) (Mus musculus, UniProt P00520)", "T5 construct": "gene Abl1", "method_in_brief": "as §1"}, "STK16(h)": {"target": "STK16(h) (Homo sapiens, UniProt O75716)", "sequence (O75716 whole entry)": "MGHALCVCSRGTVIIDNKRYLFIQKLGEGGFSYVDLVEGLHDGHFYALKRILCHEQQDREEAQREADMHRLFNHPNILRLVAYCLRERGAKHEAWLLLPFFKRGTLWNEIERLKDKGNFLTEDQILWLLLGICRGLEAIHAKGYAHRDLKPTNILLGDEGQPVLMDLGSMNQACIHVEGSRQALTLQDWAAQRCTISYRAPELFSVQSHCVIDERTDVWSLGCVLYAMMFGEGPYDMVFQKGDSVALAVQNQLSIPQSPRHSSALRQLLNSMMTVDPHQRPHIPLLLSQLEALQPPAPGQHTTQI", "method_in_brief": "as §1"}, "Wee1B(h)": {"target": "T6, Wee1B(h) (Homo sapiens, UniProt P0C1S8)", "T6 construct": "gene WEE2", "method_in_brief": "as §1"}, "[1]": {"target": "T7, PI3 Kinase (p110a/p65a)(h) (Homo sapiens, UniProt P42336)", "T7 construct": "gene PIK3CA; with p65a", "method_in_brief": "as §1"}, "ACK1(h)": {"target": "T8, ACK1(h) (Homo sapiens, UniProt Q07912)", "T8 construct": "gene TNK2", "method_in_brief": "as §1"}, "BrSK2(h)": {"target": "T9, BrSK2(h) (Homo sapiens, UniProt Q8IWQ3)", "T9 sequence (Q8IWQ3 1-736)": "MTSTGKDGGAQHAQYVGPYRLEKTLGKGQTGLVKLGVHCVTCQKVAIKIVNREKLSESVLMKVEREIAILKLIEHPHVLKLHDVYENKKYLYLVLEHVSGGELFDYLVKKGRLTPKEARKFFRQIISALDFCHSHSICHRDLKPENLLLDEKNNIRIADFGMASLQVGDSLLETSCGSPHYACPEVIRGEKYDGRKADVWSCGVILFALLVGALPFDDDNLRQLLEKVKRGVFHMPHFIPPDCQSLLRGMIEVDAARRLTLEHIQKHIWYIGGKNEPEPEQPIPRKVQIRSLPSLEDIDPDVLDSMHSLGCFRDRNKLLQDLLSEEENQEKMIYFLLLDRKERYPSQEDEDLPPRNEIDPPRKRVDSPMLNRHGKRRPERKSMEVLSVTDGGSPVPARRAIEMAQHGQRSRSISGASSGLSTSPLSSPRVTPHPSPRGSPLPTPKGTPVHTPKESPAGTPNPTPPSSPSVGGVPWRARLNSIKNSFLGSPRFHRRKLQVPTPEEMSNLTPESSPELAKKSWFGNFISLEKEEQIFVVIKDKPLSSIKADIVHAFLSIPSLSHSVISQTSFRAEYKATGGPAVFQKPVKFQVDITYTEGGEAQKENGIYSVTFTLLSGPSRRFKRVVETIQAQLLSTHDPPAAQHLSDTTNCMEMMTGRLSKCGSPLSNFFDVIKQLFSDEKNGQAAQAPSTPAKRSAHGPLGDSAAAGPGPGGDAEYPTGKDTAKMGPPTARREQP", "method_in_brief": "as §1"}, "c-RAF(h)": {"target": "T10, c-RAF(h) (Homo sapiens, UniProt P04049)", "T10 construct": "gene RAF1", "method_in_brief": "as §1"}, "SAPK2a(T106M)(h)": {"target": "T11, SAPK2a(T106M)(h) (Homo sapiens, UniProt Q16539, T106M)", "T11 construct": "gene MAPK14", "T11 sequence (Q16539 whole entry T106M)": "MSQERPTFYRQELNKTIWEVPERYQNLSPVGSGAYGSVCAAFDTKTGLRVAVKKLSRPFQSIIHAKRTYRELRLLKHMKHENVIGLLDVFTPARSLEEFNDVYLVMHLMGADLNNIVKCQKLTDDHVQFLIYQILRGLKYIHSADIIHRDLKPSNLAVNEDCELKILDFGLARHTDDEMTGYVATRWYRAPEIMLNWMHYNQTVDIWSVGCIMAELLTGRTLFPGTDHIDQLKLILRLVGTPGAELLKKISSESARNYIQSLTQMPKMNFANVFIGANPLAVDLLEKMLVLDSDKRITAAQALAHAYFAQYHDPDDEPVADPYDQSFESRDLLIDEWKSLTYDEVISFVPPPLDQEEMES", "method_in_brief": "as §1"}, "TNIK(h)": {"target": "TNIK(h) (Homo sapiens, UniProt Q9UKE5)", "sequence (Q9UKE5 whole entry)": "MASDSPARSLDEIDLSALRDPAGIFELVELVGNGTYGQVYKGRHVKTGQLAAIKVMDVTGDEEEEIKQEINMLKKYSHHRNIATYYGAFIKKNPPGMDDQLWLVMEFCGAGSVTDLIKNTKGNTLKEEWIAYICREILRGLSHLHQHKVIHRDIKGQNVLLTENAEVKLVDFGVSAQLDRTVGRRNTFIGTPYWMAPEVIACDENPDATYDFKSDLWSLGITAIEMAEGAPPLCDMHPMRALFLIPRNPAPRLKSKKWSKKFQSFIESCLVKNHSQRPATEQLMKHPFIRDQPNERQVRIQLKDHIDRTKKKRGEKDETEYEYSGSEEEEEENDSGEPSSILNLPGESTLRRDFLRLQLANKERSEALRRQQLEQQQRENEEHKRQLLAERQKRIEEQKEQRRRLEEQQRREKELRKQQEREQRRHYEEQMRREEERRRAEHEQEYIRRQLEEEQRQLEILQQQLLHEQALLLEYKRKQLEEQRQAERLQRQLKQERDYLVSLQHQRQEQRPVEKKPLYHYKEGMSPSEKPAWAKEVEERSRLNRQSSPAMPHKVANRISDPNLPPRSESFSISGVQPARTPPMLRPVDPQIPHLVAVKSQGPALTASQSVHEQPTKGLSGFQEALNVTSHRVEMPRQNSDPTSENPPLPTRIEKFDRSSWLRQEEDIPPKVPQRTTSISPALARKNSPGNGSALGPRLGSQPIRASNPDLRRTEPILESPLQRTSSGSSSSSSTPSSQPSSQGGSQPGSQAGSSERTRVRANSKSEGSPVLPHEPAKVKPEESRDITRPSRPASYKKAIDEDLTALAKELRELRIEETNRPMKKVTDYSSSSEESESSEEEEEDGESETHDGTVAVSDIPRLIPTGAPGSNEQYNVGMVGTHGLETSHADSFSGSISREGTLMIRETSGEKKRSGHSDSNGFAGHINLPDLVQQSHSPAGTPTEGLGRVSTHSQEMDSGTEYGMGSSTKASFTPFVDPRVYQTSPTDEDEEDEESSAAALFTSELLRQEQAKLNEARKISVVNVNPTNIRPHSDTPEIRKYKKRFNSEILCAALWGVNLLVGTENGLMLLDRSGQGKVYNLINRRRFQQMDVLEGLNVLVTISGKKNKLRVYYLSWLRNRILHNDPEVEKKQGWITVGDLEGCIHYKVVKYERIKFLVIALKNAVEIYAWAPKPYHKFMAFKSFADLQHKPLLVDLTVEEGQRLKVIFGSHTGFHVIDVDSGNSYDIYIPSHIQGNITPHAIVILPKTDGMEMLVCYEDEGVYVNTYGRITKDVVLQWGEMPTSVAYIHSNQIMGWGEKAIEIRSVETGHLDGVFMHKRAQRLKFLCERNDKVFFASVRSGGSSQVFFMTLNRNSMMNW", "method_in_brief": "as §1"}, "[2]": {"conditions": "read-out: Residual activity (%) Spautin-1 5aa"}, "[3]": {"conditions": "read-out: Residual activity (%) 5as"}, "[4]": {"conditions": "read-out: Residual activity (%) 5at"}, "[5]": {"conditions": "read-out: Residual activity (%) 5ay"}}, "note": "Read-outs that look alike come from different tables or passages of the source."}
{"smiles": "Fc1ccc(CNc2ncnc3ccc(F)cc23)cc1", "note": "[5aa, 6-Fluoro-N-(4-fluorobenzyl)-4-Quinazolinamine]", "values": [{"measurement": "remaining activity at 10 µM", "setting": "CK1ε(h); [2]", "result": 87, "unit": "%"}, {"measurement": "remaining activity at 10 µM", "setting": "Met(h); [2]", "result": 82, "unit": "%"}, {"measurement": "remaining activity at 10 µM", "setting": "AMPKα2(h); [2]", "result": 108, "unit": "%"}, {"measurement": "remaining activity at 10 µM", "setting": "MST3(h); [2]", "result": 80, "unit": "%"}, {"measurement": "remaining activity at 10 µM", "setting": "DDR1(h); [2]", "result": 65, "unit": "%"}, {"measurement": "remaining activity at 10 µM", "setting": "PDHK4(h); [2]", "result": 106, "unit": "%"}, {"measurement": "remaining activity at 10 µM", "setting": "Abl(m); [2]", "result": 90, "unit": "%"}, {"measurement": "remaining activity at 10 µM", "setting": "STK16(h); [2]", "result": 88, "unit": "%"}, {"measurement": "remaining activity at 10 µM", "setting": "Wee1B(h); [2]", "result": 95, "unit": "%"}, {"measurement": "remaining activity at 10 µM", "setting": "[1]; [2]", "result": 98, "unit": "%"}, {"measurement": "remaining activity at 10 µM", "setting": "ACK1(h); [2]", "result": 85, "unit": "%"}, {"measurement": "remaining activity at 10 µM", "setting": "BrSK2(h); [2]", "result": 79, "unit": "%"}, {"measurement": "remaining activity at 10 µM", "setting": "c-RAF(h); [2]", "result": 110, "unit": "%"}, {"measurement": "remaining activity at 10 µM", "setting": "SAPK2a(T106M)(h); [2]", "result": 95, "unit": "%"}, {"measurement": "remaining activity at 10 µM", "setting": "TNIK(h); [2]", "result": 72, "unit": "%"}]}
{"smiles": "Fc1ccc(CCNc2ncnc3ccc(F)cc23)cc1", "note": "[5as, 6-Fluoro-N-[2-(4-Fluorophenyl)Ethyl]-4-Quinazolinamine]", "values": [{"measurement": "remaining activity at 10 µM", "setting": "CK1ε(h); [3]", "result": 76, "unit": "%"}, {"measurement": "remaining activity at 10 µM", "setting": "Met(h); [3]", "result": 57, "unit": "%"}, {"measurement": "remaining activity at 10 µM", "setting": "AMPKα2(h); [3]", "result": 108, "unit": "%"}, {"measurement": "remaining activity at 10 µM", "setting": "MST3(h); [3]", "result": 89, "unit": "%"}, {"measurement": "remaining activity at 10 µM", "setting": "DDR1(h); [3]", "result": 29, "unit": "%"}, {"measurement": "remaining activity at 10 µM", "setting": "PDHK4(h); [3]", "result": 102, "unit": "%"}, {"measurement": "remaining activity at 10 µM", "setting": "Abl(m); [3]", "result": 83, "unit": "%"}, {"measurement": "remaining activity at 10 µM", "setting": "STK16(h); [3]", "result": 75, "unit": "%"}, {"measurement": "remaining activity at 10 µM", "setting": "Wee1B(h); [3]", "result": 99, "unit": "%"}, {"measurement": "remaining activity at 10 µM", "setting": "[1]; [3]", "result": 95, "unit": "%"}, {"measurement": "remaining activity at 10 µM", "setting": "ACK1(h); [3]", "result": 84, "unit": "%"}, {"measurement": "remaining activity at 10 µM", "setting": "BrSK2(h); [3]", "result": 65, "unit": "%"}, {"measurement": "remaining activity at 10 µM", "setting": "c-RAF(h); [3]", "result": 114, "unit": "%"}, {"measurement": "remaining activity at 10 µM", "setting": "SAPK2a(T106M)(h); [3]", "result": 115, "unit": "%"}, {"measurement": "remaining activity at 10 µM", "setting": "TNIK(h); [3]", "result": 83, "unit": "%"}]}
{"smiles": "Fc1ccc2ncnc(NCCc3ccc(Cl)cc3)c2c1", "note": "[5at, N-[2-(4-Chlorophenyl)Ethyl]-6-Fluoro-4-Quinazolinamine]", "values": [{"measurement": "remaining activity at 10 µM", "setting": "CK1ε(h); [4]", "result": 82, "unit": "%"}, {"measurement": "remaining activity at 10 µM", "setting": "Met(h); [4]", "result": 112, "unit": "%"}, {"measurement": "remaining activity at 10 µM", "setting": "AMPKα2(h); [4]", "result": 109, "unit": "%"}, {"measurement": "remaining activity at 10 µM", "setting": "MST3(h); [4]", "result": 74, "unit": "%"}, {"measurement": "remaining activity at 10 µM", "setting": "DDR1(h); [4]", "result": 39, "unit": "%"}, {"measurement": "remaining activity at 10 µM", "setting": "PDHK4(h); [4]", "result": 101, "unit": "%"}, {"measurement": "remaining activity at 10 µM", "setting": "Abl(m); [4]", "result": 99, "unit": "%"}, {"measurement": "remaining activity at 10 µM", "setting": "STK16(h); [4]", "result": 78, "unit": "%"}, {"measurement": "remaining activity at 10 µM", "setting": "Wee1B(h); [4]", "result": 100, "unit": "%"}, {"measurement": "remaining activity at 10 µM", "setting": "[1]; [4]", "result": 94, "unit": "%"}, {"measurement": "remaining activity at 10 µM", "setting": "ACK1(h); [4]", "result": 71, "unit": "%"}, {"measurement": "remaining activity at 10 µM", "setting": "BrSK2(h); [4]", "result": 71, "unit": "%"}, {"measurement": "remaining activity at 10 µM", "setting": "c-RAF(h); [4]", "result": 117, "unit": "%"}, {"measurement": "remaining activity at 10 µM", "setting": "SAPK2a(T106M)(h); [4]", "result": 103, "unit": "%"}, {"measurement": "remaining activity at 10 µM", "setting": "TNIK(h); [4]", "result": 63, "unit": "%"}]}
{"smiles": "COc1ccc2ncnc(Nc3cccc(F)c3)c2c1", "note": "[5ay, N-(3-Fluorophenyl)-6-Methoxy-4-Quinazolinamine]", "values": [{"measurement": "remaining activity at 10 µM", "setting": "CK1ε(h); [5]", "result": 78, "unit": "%"}, {"measurement": "remaining activity at 10 µM", "setting": "Met(h); [5]", "result": 72, "unit": "%"}, {"measurement": "remaining activity at 10 µM", "setting": "AMPKα2(h); [5]", "result": 97, "unit": "%"}, {"measurement": "remaining activity at 10 µM", "setting": "MST3(h); [5]", "result": 86, "unit": "%"}, {"measurement": "remaining activity at 10 µM", "setting": "DDR1(h); [5]", "result": 7, "unit": "%"}, {"measurement": "remaining activity at 10 µM", "setting": "PDHK4(h); [5]", "result": 104, "unit": "%"}, {"measurement": "remaining activity at 10 µM", "setting": "Abl(m); [5]", "result": 56, "unit": "%"}, {"measurement": "remaining activity at 10 µM", "setting": "STK16(h); [5]", "result": 76, "unit": "%"}, {"measurement": "remaining activity at 10 µM", "setting": "Wee1B(h); [5]", "result": 106, "unit": "%"}, {"measurement": "remaining activity at 10 µM", "setting": "[1]; [5]", "result": 91, "unit": "%"}, {"measurement": "remaining activity at 10 µM", "setting": "ACK1(h); [5]", "result": 56, "unit": "%"}, {"measurement": "remaining activity at 10 µM", "setting": "BrSK2(h); [5]", "result": 42, "unit": "%"}, {"measurement": "remaining activity at 10 µM", "setting": "c-RAF(h); [5]", "result": 102, "unit": "%"}, {"measurement": "remaining activity at 10 µM", "setting": "SAPK2a(T106M)(h); [5]", "result": 121, "unit": "%"}, {"measurement": "remaining activity at 10 µM", "setting": "TNIK(h); [5]", "result": 65, "unit": "%"}]}
